Reference: PubChem BioAssay AID2060494 (Molecular Pharmacology Branch, DTP, NCI, 2025)
One block for each compound: values may come before it.

Tested on: 435261-313-R-J1-PDC complex spheroid viability
Test: Anticancer human tumor 435261-313-R-J1-PDC patient-derived colon adenocarcinoma cell line growth inhibition [GQUAD]
Conditions: for IC50: curve of first compound; for viability, T/C: stronger effect = lower value
Summary of the method: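 Viability of tumor cells grown as complex spheroids with endothelial and stromal cells, exposed to drug combinations. Top concentration at or near clinical Cmax (else 10 microM), diluted in half-log increments.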

[1] = second compound 0.0316 µM, first compound 0.0316 µM
[2] = second compound 0.0316 µM, first compound 0.1 µM
[3] = second compound 0.0316 µM, first compound 0.316 µM
[4] = second compound 0.0316 µM, first compound 1 µM
[5] = second compound 0.0316 µM, first compound 3.16 µM
[6] = second compound 0.0316 µM, first compound 10 µM
[7] = second compound 0.1 µM, first compound 0.0316 µM
[8] = second compound 0.1 µM, first compound 0.1 µM
[9] = second compound 0.1 µM, first compound 0.316 µM
[10] = second compound 0.1 µM, first compound 1 µM
[11] = second compound 0.1 µM, first compound 3.16 µM
[12] = second compound 0.1 µM, first compound 10 µM
[13] = second compound 0.316 µM, first compound 0.0316 µM
[14] = second compound 0.316 µM, first compound 0.1 µM
[15] = second compound 0.316 µM, first compound 0.316 µM
[16] = second compound 0.316 µM, first compound 1 µM
[17] = second compound 0.316 µM, first compound 3.16 µM
[18] = second compound 0.316 µM, first compound 10 µM
[19] = second compound 1 µM, first compound 0.0316 µM
[20] = second compound 1 µM, first compound 0.1 µM
[21] = second compound 1 µM, first compound 0.316 µM
[22] = second compound 1 µM, first compound 1 µM
[23] = second compound 1 µM, first compound 3.16 µM
[24] = second compound 1 µM, first compound 10 µM
[25] = second compound 3.16 µM, first compound 0.0316 µM
[26] = second compound 3.16 µM, first compound 0.1 µM
[27] = second compound 3.16 µM, first compound 0.316 µM
[28] = second compound 3.16 µM, first compound 1 µM
[29] = second compound 3.16 µM, first compound 3.16 µM
[30] = second compound 3.16 µM, first compound 10 µM
[31] = second compound 10 µM, first compound 0.0316 µM
[32] = second compound 10 µM, first compound 0.1 µM
[33] = second compound 10 µM, first compound 0.316 µM
[34] = second compound 10 µM, first compound 1 µM
[35] = second compound 10 µM, first compound 3.16 µM
[36] = second compound 10 µM, first compound 10 µM
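Also: spheroids exposed to the agents for seven days before readout.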
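For viability, T/C in this document: percent of vehicle control viability with DMSO wells as 100%.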

IC50 (second compound 0.0316 µM): 95.2 nM
IC50 (second compound 0.1 µM): 105 nM
IC50 (second compound 0.316 µM): 48.5 nM
IC50 (second compound 1 µM): < 31.6 nM
IC50 (second compound 3.16 µM): < 31.6 nM
IC50 (second compound 10 µM): < 31.6 nM
Compound: CC1COCCN1c1cc(C2(O)CC3CCC(C2)O3)c2cnn(-c3ccn[nH]3)c2n1 (stereo unspecified) + Cc1cnc(CNC(=O)c2c(=O)c3ccc(N4CCCN(C)CC4)nc3n3c2sc2ccccc23)cn1
viability, T/C [1]: 59.8%
viability, T/C [2]: 48%
viability, T/C [3]: 42.8%
viability, T/C [4]: 24.6%
viability, T/C [5]: 23.5%
viability, T/C [6]: 11.2%
viability, T/C [7]: 49.5%
viability, T/C [8]: 57.9%
viability, T/C [9]: 38.2%
viability, T/C [10]: 26.6%
viability, T/C [11]: 22.3%
viability, T/C [12]: 10.1%
viability, T/C [13]: 51.5%
viability, T/C [14]: 47.9%
viability, T/C [15]: 37.2%
viability, T/C [16]: 27.7%
viability, T/C [17]: 18.8%
viability, T/C [18]: 8.98%
viability, T/C [19]: 38.5%
viability, T/C [20]: 36.1%
viability, T/C [21]: 23.1%
viability, T/C [22]: 15.7%
viability, T/C [23]: 11.3%
viability, T/C [24]: 4.12%
viability, T/C [25]: 12.3%
viability, T/C [26]: 14.2%
viability, T/C [27]: 6.28%
viability, T/C [28]: 0.12%
viability, T/C [29]: 0.15%
viability, T/C [30]: 0.09%
viability, T/C [31]: 0.8%
viability, T/C [32]: 0.14%
viability, T/C [33]: 0.17%
viability, T/C [34]: 0.18%
viability, T/C [35]: 0.19%
viability, T/C [36]: 0.13%

Compound: COc1ccc([C@@H](O)c2cc(-c3ncnc4cc(N5CCOCC5)ccc34)c(F)cc2Cl)nn1 + Cc1[nH]c2ccc(F)cc2c1-c1nc2c3cccnc3c3ncccc3c2[nH]1
IC50 (second compound 0.0316 µM): 1080 nM
IC50 (second compound 0.1 µM): 4220 nM
IC50 (second compound 0.316 µM): 3420 nM
IC50 (second compound 1 µM): 2810 nM
IC50 (second compound 3.16 µM): < 31.6 nM
IC50 (second compound 10 µM): < 31.6 nM
viability, T/C [1]: 88.7%
viability, T/C [2]: 64.5%
viability, T/C [3]: 88.6%
viability, T/C [4]: 50.8%
viability, T/C [5]: 44.5%
viability, T/C [6]: 30.4%
viability, T/C [7]: 99%
viability, T/C [8]: 97.6%
viability, T/C [9]: 106%
viability, T/C [10]: 70.2%
viability, T/C [11]: 62.7%
viability, T/C [12]: 24.5%
viability, T/C [13]: 63.4%
viability, T/C [14]: 99.4%
viability, T/C [15]: 70.5%
viability, T/C [16]: 87.9%
viability, T/C [17]: 51.8%
viability, T/C [18]: 25.2%
viability, T/C [19]: 67.8%
viability, T/C [20]: 65.3%
viability, T/C [21]: 82%
viability, T/C [22]: 45.2%
viability, T/C [23]: 55.4%
viability, T/C [24]: 20%
viability, T/C [25]: 45.2%
viability, T/C [26]: 30.1%
viability, T/C [27]: 35.5%
viability, T/C [28]: 36.4%
viability, T/C [29]: 13.6%
viability, T/C [30]: 10.9%
viability, T/C [31]: 19.8%
viability, T/C [32]: 21.9%
viability, T/C [33]: 27.1%
viability, T/C [34]: 18.7%
viability, T/C [35]: 13.2%
viability, T/C [36]: 8.61%

IC50 (second compound 0.0316 µM): > 10000 nM
IC50 (second compound 0.1 µM): > 10000 nM
IC50 (second compound 0.316 µM): < 31.6 nM
IC50 (second compound 1 µM): < 31.6 nM
IC50 (second compound 3.16 µM): < 31.6 nM
IC50 (second compound 10 µM): < 31.6 nM
Compound: COc1ncnc(C2CC2)c1-c1ncc2cnn(Cc3ccc(-c4nc(C(F)(F)F)cn4C(C)C)cc3)c2n1 + Cc1cnc(CNC(=O)c2c(=O)c3ccc(N4CCCN(C)CC4)nc3n3c2sc2ccccc23)cn1
viability, T/C [1]: 63.8%
viability, T/C [2]: 55.6%
viability, T/C [3]: 61.9%
viability, T/C [4]: 55.2%
viability, T/C [5]: 65.9%
viability, T/C [6]: 55.6%
viability, T/C [7]: 65.5%
viability, T/C [8]: 59.7%
viability, T/C [9]: 51.1%
viability, T/C [10]: 53.5%
viability, T/C [11]: 61.9%
viability, T/C [12]: 53.8%
viability, T/C [13]: 48.4%
viability, T/C [14]: 53.7%
viability, T/C [15]: 52.4%
viability, T/C [16]: 48.5%
viability, T/C [17]: 55.1%
viability, T/C [18]: 54.3%
viability, T/C [19]: 32.6%
viability, T/C [20]: 40.8%
viability, T/C [21]: 40.7%
viability, T/C [22]: 31.8%
viability, T/C [23]: 42.1%
viability, T/C [24]: 37.2%
viability, T/C [25]: 17.9%
viability, T/C [26]: 10.5%
viability, T/C [27]: 17.6%
viability, T/C [28]: 8.94%
viability, T/C [29]: 15.1%
viability, T/C [30]: 17.2%
viability, T/C [31]: 0.18%
viability, T/C [32]: 0.17%
viability, T/C [33]: 0.23%
viability, T/C [34]: 0.19%
viability, T/C [35]: 0.2%
viability, T/C [36]: 0.18%
